These results are taken from PubChem BioAssay (NCI).

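Each compound was tested at five concentrations against cells in 96-well plates for 48 hours. GI50: concentration for 50% inhibition of growth. Definition used: TGI = concentration required for complete inhibition of growth.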 Some results are limits rather than exact numbers.

Common to all, as to assay: growth of human tumour cells (NCI), 48 h
Assay [1] deals with U251 CNS.
The test system of assay [2] is RXF 393 renal.
The subject of assay [3] is HS 578T breast.
For assay [4], the system named is ACHN renal.
Assay [5] concerns UACC-257 melanoma.
In assay [6] the test system is OVCAR-3 ovarian.
Assay [7] relates to T-47D breast.
Assay [8] has as its system K-562 leukemia.
Assay [9] has as its system HOP-62 NSCLC.
Assay [10] relates to CCRF-CEM leukemia.

On to `O=S(=O)(Nc1ccc(Br)cc1)c1ccc(-c2cnc(C3CC3)o2)cc1`, for which the GI50 is 3.31 µM in assay [1]; 1.61 µM in assay [2]; 1.38 µM in assay [3]; 4.9 µM in assay [4]; 10.5 µM in [5]; 1.05 µM in assay [6]. In addition, the GI50 is 2.84 µM in [7], 0.41 µM in assay [8], 2.37 µM in assay [9] and 2.14 µM in [10]. The TGI in assay [1] was found to be 18.2 µM; in assay [2], 7.6 µM; in assay [3], 6.17 µM; in [4], 17.5 µM; in assay [5] it was 27.5 µM; in assay [6] it was 3.96 µM. Besides, the TGI in [7] is 16.9 µM; in assay [8] it was over 100 µM; in [9], 16.6 µM; in assay [10] it was 16.2 µM.
Take `FC(F)(F)c1cccc(-c2nc3nc(Cl)c(Cl)nc3[nH]2)c1`: the TGI in assay [1] is 13.6 µM; in assay [2], 27 µM; in [3], 17.8 µM; in assay [4], over 28.2 µM; in assay [5] it was over 30.9 µM; in assay [6], 14.9 µM. Also, the TGI stood at 12.9 µM in [7], 17 µM in assay [8], 23.5 µM in assay [9] and 7.99 µM in assay [10].
With `Cc1ccc2cnc(N)c(C#Cc3cc(C(=O)Nc4ccc(CN5CCN(C)CC5)c(C(F)(F)F)c4)cnc3C)c2c1`, the GI50 in [1] is 0.803 µM; in assay [2] it was 0.676 µM; in assay [3], 0.901 µM; in [4] it was 0.449 µM; in [5], 0.651 µM; in [6], 0.67 µM. For the same compound, the GI50 in assay [7] was 9.23 µM; in assay [8] it was 0.005 µM; in assay [9], 0.887 µM; in assay [10], 0.917 µM. Besides, the TGI was found to be 1.87 µM in assay [1]; 1.35 µM in [2]; 2.76 µM in assay [3]; 1.06 µM in assay [4]; 1.48 µM in assay [5]; 2.66 µM in [6]. Besides, the TGI in assay [7] was found to be 36.7 µM; in [8] it was 1.26 µM; in [9], 2.76 µM; in assay [10] it was 2.85 µM.
`C=C1CCC2C3(C)COC(C)(C)OC3CCC2(C)C1C/C=C1/C(=O)OCC1OC(C)=O` (configuration not stated): the GI50 in [1] was 2.69 µM; in assay [2] it was 1.6 µM; in assay [3], 2.75 µM; in assay [4], 3.12 µM; in assay [5], 2.02 µM; in assay [6], 2.47 µM. Besides, the GI50 in [7] was 2.96 µM; in assay [8], 2.85 µM; in assay [9] it was 11.9 µM; in assay [10] it was 1.81 µM. The TGI worked out at 9.31 µM in assay [1]; 3.32 µM in assay [2]; 9.59 µM in assay [3]; 10.5 µM in [4]; 5.62 µM in assay [5]; 6.07 µM in assay [6]. In addition, the TGI in [7] is 11.5 µM; in [8] it was 23.2 µM; in assay [9], 25 µM; in [10], 11.5 µM.
As to `Cc1c2cnccc2c(C)c2c1c1cc(C#N)ccc1n2C`, the GI50 was 0.204 µM in assay [1]; 0.128 µM in assay [2]; 0.241 µM in assay [3]; 0.0457 µM in assay [4]; 0.207 µM in assay [5]; 0.215 µM in assay [6]. In addition, the GI50 in [7] was 0.303 µM; in [8], 0.247 µM; in assay [9], 0.115 µM; in assay [10] it was 0.249 µM. The TGI in assay [1] came out at 1.12 µM; in assay [2], 0.393 µM; in assay [3] it was 1.3 µM; in assay [4] it was 0.456 µM; in assay [5], 0.788 µM; in assay [6], 0.792 µM. The TGI in assay [8] came to 1.33 µM; in assay [9], 1.42 µM; in assay [10], 2.83 µM.
With `COc1cc(C)ccc1C(=O)c1ccc(C)cc1OC`, the GI50 was 3.06 µM in assay [1]; 1.66 µM in [2]; 3.45 µM in assay [3]; 8.21 µM in assay [4]; 54.8 µM in assay [5]; 2.1 µM in assay [6]. Also, the GI50 is 4.67 µM in assay [7], 0.619 µM in assay [8], 3.11 µM in assay [9] and 5.57 µM in assay [10]. The TGI in assay [1] is over 100 µM; in [2] it was 4.53 µM; in assay [3], over 100 µM; in assay [4] it was over 100 µM; in assay [5], over 100 µM; in [6] it was 6.55 µM. Moreover, the TGI in [7], in assay [8], in assay [9] and in assay [10] was over 100 µM throughout.
For `O=C(Oc1cccnc1)c1cccnc1Nc1ccnc(C(F)(F)F)c1`, the GI50 in assay [1] was 14.3 µM; in assay [2], 21.3 µM; in assay [3], 32.2 µM; in assay [4] it was 21.7 µM; in [5], 27.1 µM; in [6], 18.3 µM. The GI50 in [7] is 36.3 µM; in assay [8], 5.18 µM; in assay [9], 13.7 µM; in assay [10], 2.49 µM. The TGI in assay [1] was 47.3 µM; in [2], 80.4 µM; in [3], over 100 µM; in [4], 66 µM; in assay [5], over 100 µM; in assay [6], 62.2 µM. Besides, the TGI in assay [7] is over 100 µM; in assay [8] it was over 100 µM; in [9], 36 µM; in [10], 10.5 µM.
With `C/C(=N/O)c1cccc(Nc2cc(-n3nnc4ccccc43)nc3ccccc23)c1`, the GI50 in assay [1] is 20.4 µM; in [2], 14.7 µM; in assay [3] it was 14.3 µM; in assay [4] it was 14.2 µM; in [5], 22.7 µM; in assay [6], 13 µM. The GI50 in assay [7] was 34.6 µM; in assay [8] it was 5.91 µM; in assay [9] it was 20.5 µM; in assay [10], 3.98 µM. In addition, the TGI in [1] was over 100 µM; in assay [2], 43 µM; in assay [3] it was 45.5 µM; in assay [4], 46.6 µM; in assay [5], over 64.4 µM; in assay [6], 31.7 µM. Moreover, the TGI in [7] is over 85.3 µM; in assay [8] it was 82.1 µM; in assay [9], 44.2 µM; in assay [10], 18.6 µM.
Regarding `Nc1ncn([C@@H]2S[C@H](CO)[C@@H](O)[C@@H]2F)c(=O)n1`, the GI50 in [1] is 13.9 µM; in assay [2] it was 7.31 µM; in assay [3], over 100 µM; in [4] it was 0.297 µM; in assay [5] it was over 71.4 µM; in assay [6], over 74 µM. Moreover, the GI50 in [7] was over 100 µM; in [8] it was 1.81 µM; in [9], 0.951 µM; in assay [10] it was 0.0399 µM. Further, the TGI in [1], in assay [2], in assay [3], in [5], in [6] and in [7] was over 100 µM throughout. Also, the TGI in assay [8], in assay [9] and in assay [10] was over 100 µM throughout.
Consider `N#CC(C#N)=C/C=C(\Cl)c1ccc(Cl)cc1`, for which the GI50 in assay [1] was 6.9 µM; in assay [2], 7.63 µM; in assay [3] it was 7.47 µM; in assay [4], 9.96 µM; in [5] it was 14.8 µM; in [6] it was 6.5 µM. The GI50 in assay [7] is 13.8 µM; in assay [8], 0.7 µM; in assay [9], 14.3 µM; in assay [10], 0.425 µM. For the same compound, the TGI was over 43.7 µM in [1]; 34.9 µM in assay [2]; 26.3 µM in [3]; 37.2 µM in assay [4]; 30.2 µM in assay [5]; 17.4 µM in assay [6]. Also, the TGI in assay [7] is 49.1 µM; in assay [9], 31.3 µM; in assay [10], over 100 µM.
`CN(C)c1cc2ccccc2oc1=O`: the TGI in assay [1], in assay [2], in [3], in [4], in assay [5] and in assay [6] was over 100 µM in each case. The TGI in [7], in assay [8], in assay [9] and in [10] was over 100 µM each time.
As to `O=C(c1ccc2ccccc2c1)c1c(C(F)(F)F)n([O-])c2ccc(C(F)(F)F)cc2[n+]1=O`, the GI50 was 0.302 µM in [1]; 0.974 µM in [2]; 1.44 µM in assay [3]; 0.566 µM in assay [4]; 1.52 µM in assay [5]; 0.884 µM in [6]. In addition, the GI50 in assay [7] was 0.755 µM; in [8], 0.608 µM; in assay [9], 1.95 µM; in [10], 0.181 µM. Also, the TGI in assay [1] turned out to be 0.742 µM; in [2], 2.54 µM; in [3] it was 3.97 µM; in [4], 1.71 µM; in assay [5], 3.12 µM; in assay [6], 2.26 µM. For the same compound, the TGI is 2.31 µM in assay [7], 1.14 µM in assay [8], 3.58 µM in assay [9] and 0.547 µM in assay [10].
Turning to `O=C1/C(=C/c2ccc([N+](=O)[O-])cc2)CN(C(=O)CCN2CCC(=NO)CC2)C/C1=C\c1ccc([N+](=O)[O-])cc1`, the GI50 was 0.509 µM in assay [1]; 1.49 µM in assay [2]; 1.98 µM in assay [3]; 0.893 µM in assay [4]; 2.43 µM in assay [5]; 0.801 µM in assay [6]. Moreover, the GI50 in assay [7] is 1.84 µM; in [8], 0.216 µM; in assay [9], 1.91 µM; in assay [10], 0.534 µM. In addition, the TGI in [1] is 2.03 µM; in [2], 3.14 µM; in assay [3] it was 9.86 µM; in assay [4] it was 2.46 µM; in assay [5], 7.97 µM; in assay [6] it was 2.31 µM. The TGI was 9.27 µM in assay [7], over 60.9 µM in assay [8], 6.97 µM in [9] and 9.93 µM in assay [10].
In the case of `C/C(CC(O)(C(F)(F)F)C(F)(F)F)=N\NC(N)=O`, the TGI in assay [1], in [2], in [3], in [4], in [5] and in assay [6] was over 10 µM in each case. The TGI in assay [7], in assay [8], in assay [9] and in assay [10] was over 10 µM in each case.
